What was measured:
Histamin-H1 = assay: Protection against lethal histamine dihydrochloride dose (histamine H1 antagonism) in guinea pigs; type: in vivo, Meerschweinchen; conditions: 10 per dose, test substance orally 1 hour before lethal Histamin-dihydrochlorid (10 mg/kg s.c.), dose protecting 50% of animals from death, probit method
Excerpt: Ueberraschenderweise hat es sich gezeigt, dass die erfindungsgemässen Produkte die H1-Wirkung des Histamins zu hemmen vermögen. Die Verbindungen der allgemeinen Formel I und ihre pharmazeutisch annehmbaren Säureadditionssalze sind somit wertvolle Histamin-H antagonistische Wirkstoffe und eignen sich insbesondere zur Bekämpfung bzw. Verhütung von allergischen Reaktionen, wie beispielsweise Urtikaria, Heuschnupfen, Anaphylaxie und Arzneimittelüberempfindlichkeit. Diese Histamin-H1 antagonistischen Eigenschaften können wie nachfolgend beschrieben an männlichen und weiblichen, 240 bis 300 g schweren Meerschweinchen (SPF, Füllinsdorf) ermittelt werden:
Den Versuchstieren (10 pro Dosis) wird während 24 Stunden vor Versuchsbeginn das Futter entzogen, wobei Wasser ad libitum erhältlich ist. Eine Stunde nach oraler Verabreichung einer Lösung der Testsubstanz (10 ml/kg) erhalten die Versuchstiere eine letale Dosis von Histamin-dihydrochlorid (10 mg/kg s.c.). Ungeschützte Tiere, d.h. nur mit Histamin-dihydrochlorid behandelte Tiere, sterben innerhalb einer Stunde. Nach Auszählen der überlebenden, geschützten'Tiere wird die ED50 nach der Probitmethode ermittelt. Die ED50 ist diejenige Dosis, die notwendig ist, um 50% der mit der Testsubstanz behandelten Tiere vor dem Tod zu schützen.

[1] = Acute toxicity after single oral administration to mice; conditions: mouse, in vivo, read-out: DL50 (the source's name)
Excerpt: Die nachfolgende Tabelle enthält für zwei repräsentative Vertreter der durch die allgemeine Formel I umfassten Verbindungsklasse die ED50-Werte, sowie Angaben über deren akute Toxizität bei einmaliger oraler Verabreichung an Mäusen (DL50 in m^g/k^g).

Structure (SMILES)	ED50 (Histamin-H1)	LD50 [1] [mg/kg]
Cc1cccc2c1CCC1=C(CC=CC1)C2CCCN(C)C (stereo not shown) [A, 4,5,10,11-Tetrahydro-N,N,9-trimethyl-1H-dibenzo[a,d]-cyclohepten-5-propylamin]	0,4 mg/kg p.o.	600 to 1200
Cc1cccc2c1CCC1=C(CCCC1)C2CCCN(C)C (stereo not shown) [B, 2,3,4,5,10,11-Hexahydro-N,N,9-trimethyl-1H-dibenzo-[a,d]cyclohepten-5-propylamin]	0,9 mg/kg p.o.	250 to 500

— patent EP0056616A2, “Cycloheptene derivatives, process for their preparation, and pharmaceuticals containing them” (F. HOFFMANN-LA ROCHE & CO. Aktiengesellschaft, priority 1981, dated 1982)
